From paper PMC10542788, “Discovery of a cystathionine γ-lyase (CSE) selective inhibitor targeting active-site pyridoxal 5′-phosphate (PLP) via Schiff base formation” (Scientific Reports, 2023)

How the values were obtained:
[1] = system: L-alanine transaminase (ALT); parameters: method as in PMID 7364752; conditions: cited from earlier work
MGL = MGL inhibition, HSip-1 fluorescence; type: biochemical; conditions: 30 µM
Protocol: (§1) The selectivity of 1, 2 and PAG for rCSE over other RSS-producing enzymes, CBS and 3MST, was examined (Fig. 4a). CBS is a PLP-dependent enzyme, like CSE, and produces H2S from cysteine and homocysteine as substrates. 3MST is also an H2S-producing enzyme, but is not PLP-dependent and uses 3-mercaptopyruvate as a substrate. The amount of H2S produced by CBS or 3MST was evaluated in the presence or absence of the inhibitor by measuring the fluorescence intensity of HSip-1. […] We also examined the inhibitory activity towards two other PLP-dependent enzymes, MGL and ALT. MGL metabolizes L-methionine to α-ketobutyric acid, methanethiol and ammonia, and is inhibited by PAG[14]. MGL also produces H2S from homocysteine as a substrate, and this activity of MGL can be measured by fluorescence detection with HSip-1. […] The enzymatic activity of ALT can be assessed by means of a coupled assay using the reduction of pyruvate to L-lactate with lactate dehydrogenase and NADH and measuring the change in absorption of NADH.
10 µL of 200 µM homocysteine in 30 mM HEPES (pH 7.4) was added to 10 µL of a solution containing 20 µg/mL MGL (Sigma-Aldrich), 100 µM PLP, 1 µM HSip-1, 0.005% tween 20 and various concentrations of the inhibitor (0.5% DMSO as a cosolvent). The mixture was incubated at 25 °C for 100 min and the fluorescence intensity of HSip-1 was measured with a microplate reader.

ALT = ALT inhibition, coupled absorbance assay (NADH, 340 nm); type: biochemical; conditions: 30 µM
Protocol: as §1
An alanine aminotransferase activity assay kit (BioVision, Inc.) was used to measure the activity of ALT. A mixture of L-alanine, NADH, LDH (lactate dehydrogenase) and ALT was incubated at 37 °C for 15 min, then α-ketoglutarate was added to the mixture and the absorbance at 340 nm was measured with a microplate reader.

methionine γ-lyase (MGL) = system: methionine γ-lyase (MGL); parameters: method as in PMID 12920135; conditions: cited from earlier work
rat CSE (rCSE) = biological target: T1, rat CSE (rCSE) (Rattus norvegicus, UniProt P18757); experiment: rCSE inhibition, H2S detection by fluorescence of HSip-1; type: biochemical; conditions: for IC50: fluorescence assay with HSip-1, 1.5 mM cysteine, 100 μM PLP, mean ± S.E., read-out: IC50, inhibitory activity towards rCSE
T1 construct: His-tag (C); made in house; host or cells: E. coli BL21
Protocol: The developed assay system employs a plate reader to detect H2S production by CSE as a fluorescence signal in a solution containing 30 μg/mL rat CSE (rCSE), 1 μM HSip-1, 100 μM pyridoxal-5′-phosphate (PLP) and 1.5 mM cysteine (a substrate) in a 384-well plate format (Fig. 1b). A large amount of rCSE was expressed in E. coli and purified on a Ni Sepharose 6 Fast Flow module. We then performed screening of a chemical library consisting of 161,600 compounds (from the Drug Discovery Initiative, the University of Tokyo) for CSE inhibitors (Fig. 1c). […] Then, a confirmation test for repeatability (n = 4) of the 160 compounds selected in the 1st screening was performed to exclude false-positives. In this step, we also excluded cysteine-reactive compounds by changing the addition order of the rCSE and cysteine (substrate) solutions. In other words, in the 1st screening, the enzyme solution was firstly added to each library compound, while in the confirmation test for repeatability of the hit compounds in the 1st screening, we firstly added the cysteine solution to each compound. This enabled us to identify and exclude cysteine-reactive compounds, based on their reaction with the added cysteine. These procedures left 80 compounds showing both more than 40% inhibition at 10 µM and similar % inhibition of rCSE irrespective of the addition order of the rCSE and cysteine solutions. In the 2nd screening, we examined the reactivity of these 80 compounds with H2S using an H2S donor[17] to exclude H2S-reactive compounds. […] In this assay, we selected 13 compounds which were non-reactive to H2S, but one was relatively unstable and two of them were the same compound, so that 11 compounds were finally selected. These compounds included some hydrazine and hydrazide derivatives, so we performed titration assay of the selected 11 compounds together with 9 commercially available hydrazine and hydrazide compounds (Supplementary Fig. S3) and calculated the half-maximal (50%) inhibitory concentration (IC50) of each compound.
The fluorescence intensity of HSip-1 was measured (λex = 490 nm, λem = 510 nm) with a microplate reader (EnVision, Perkin Elmer).
10 µL of 1.5 mM cysteine solution in 30 mM HEPES (pH 7.4) was added to 10 µL of solution containing 30 µg/mL rCSE, 100 µM PLP, 1 µM HSip-1, 0.005% tween 20 and the test compound (0.5% DMSO as a cosolvent). The mixture was incubated at 25 °C for 3 h and the fluorescence intensity of HSip-1 was measured with a microplate reader.

Row | Structure (SMILES) | inhibition of ALT [1] | inhibitory activity towards MGL / selectivity for CSE over MGL (MGL) | inhibitory activity towards ALT / selectivity for CSE over ALT (ALT) | inhibition of MGL (methionine γ-lyase (MGL)) | selectivity for CSE over other enzymes (CBS, 3MST, MGL, ALT) (rat CSE (rCSE); 3 µM) | IC50 (rat CSE (rCSE)) [µM]
1 | C#CCC(N)C(=O)O (racemic) [PAG, D,L-Propargylglycine, reference compound] | inhibited | inhibited both MGL and ALT | inhibited both MGL and ALT | inhibited | – | –
2 | CNC(=O)C(=O)NN [Compound 2] | – | some inhibitory activity towards MGL and ALT | some inhibitory activity towards MGL and ALT | – | high selectivity for CSE | 0.43 ± 0.02
3 | CCNC(=O)C(=O)NN [Compound 3] | – | – | – | – | – | > 100
4 | NNC(=O)C(=O)Nc1ccccc1 [Compound 4] | – | – | – | – | – | > 100
